Values joined by “and” are separate entries in the source; they are usually repeats but may differ in a detail not shown here. Equal entries are not always repeated. “Also recorded” adds a separate entry of the source.
Assays:
[1] = cited from earlier work
SH-SY5Y cells [2] = experiment: Aβ-induced toxicity in SH-SY5Y cells, lactate dehydrogenase (LDH) release assay; assay type: cell-based, human; conditions: 1 μM, pretreated 24 hrs, then 25 μM Aβ 48 hrs
Method: (§1) Cell Culture. The cell line SH-SY5Y was cultured in DMEM/F12 media supplemented with 10% fetal bovine serum, 1% penicillin-streptomycin and maintained as monolayer cultures in a humidified atmosphere containing 5% CO2 at 37° C.^42 All cell lines were authenticated via short tandem repeat analysis and tested for mycoplasma using the a commercial mycoplasma detection kit as per the manufacturer's instructions, showing no contamination. Where indicated, cells were also cultured in DMEM/low glucose media. All compounds were diluted to 20 mM solution in DMSO and were serially diluted in cell culture media for cell treatments to a final concentration range of 0.01 to 100 μM, maintaining the final DMSO concentration at less than 1%. Positive control compound HupA was serially diluted in a similar fashion as the synthesized compounds.
(§2) Amyloid Preparation. The peptide Aβ1-42, referred to as “Aβ”, was obtained from a commercial source. The oligomers of Aβ were prepared using an established method,^43 Aβ peptide was resuspended in 0.5 mM NaOH at a concentration of […] and stored at −80° C. For use in cell cultures, the stock solution was incubated at 37° C. for 5-7 days. Before use, the peptide was diluted to 25 μM in DMEM/low glucose media.
Cell Viability Assays. […] Cell viability was measured after 48 hours using commercial MTS assay or lactate dehydrogenase (LDH) cytotoxicity assay. […]

ABAD [3] = biological target: T1, ABAD (Homo sapiens, UniProt Q99714); experiment: Estradiol levels in SH-SY5Y cells treated with the substance alone; assay type: cell-based; design: To measure the effect of AG18051 alone in SH-SY5Y cell lines; endogenous in cells; host or cells: SH-SY5Y
T1 sequence (Q99714 1-261): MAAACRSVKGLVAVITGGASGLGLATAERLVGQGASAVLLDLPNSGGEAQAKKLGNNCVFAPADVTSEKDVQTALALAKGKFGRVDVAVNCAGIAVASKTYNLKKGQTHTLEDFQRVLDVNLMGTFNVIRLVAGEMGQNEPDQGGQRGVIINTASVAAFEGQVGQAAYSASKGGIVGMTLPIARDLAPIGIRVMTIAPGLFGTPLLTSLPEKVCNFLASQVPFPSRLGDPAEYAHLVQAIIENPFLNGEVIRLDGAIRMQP
Method: Estradiol ELISA assay. […] An estradiol assay was performed. In brief, the plate was loaded with samples, along with the estradiol tracer and the specific antiserum to estradiol and incubated for one hour at room temperature. After five washing steps, Ellman's Reagent was added, and the plate developed for 60 minutes with gentle shaking at room temperature. The calculated estradiol concentration was normalized to the total protein content of the samples.

SH-SY5Y cells [4] = experiment: Mitochondrial Stress Test in Aβ-treated SH-SY5Y cells (extracellular flux analyzer); assay type: cell-based, human; conditions: for proton leak, ATP production and maximal respiration: restoration of mitochondrial function lost by Aβ: then 25 μM Aβ
Method: Mitochondrial Stress Test. […] After 48 hours, media was replaced with assay medium consisting of XF Base Medium supplemented with 10 mM glucose, 10 mM pyruvic acid, and 1 mM L-glutamine. Subsequently, the analysis of mitochondrial oxygen consumption rate (OCR) was performed in a flux analyzer. The OCR values were obtained both during baseline (prior to addition of any Mito Stress Test substances), and after the addition of […], 2 μM FCCP and 0.5 μM rotenone+0.5 μM antimycin A, respectively. Prior to analysis, data were corrected by withdrawing non-mitochondrial respiration (measured after the injection of rotenone and antimycin A) from all measured OCR values. After the experiment, cells were lysed using RIPA buffer and protease inhibitor cocktail, then proteins were quantified via BCA assay. Results were normalized to protein concentration of each well to its OCR value.

SH-SY5Y cells [5] = experiment: Aβ-induced toxicity in SH-SY5Y cells, MTS assay; assay type: cell-based, human; conditions: pretreated 24 hrs, then 25 μM Aβ 48 hrs
Method: as §1, §2
(§3) Cell Viability Assays. The SH-SY5Y cells were plated at a density of 50,000 cells/well in 96-well plates and allowed to adapt overnight in a humidified atmosphere containing 5% CO2 at 37° C. The cells were pretreated (24 hours) with the test compound and exchanged to a serum-free DMEM/low glucose media, prior to incubation with 25 μM of Aβ. Cell viability was measured after 48 hours using commercial MTS assay or lactate dehydrogenase (LDH) cytotoxicity assay.
Employing human neuroblastoma SH-SY5Y ‘neuron-like’ cells, known to express ABAD,^20 experimental conditions are described herein that result in reproducible loss of 65% cell viability upon treatment with 25 μM Aβ after 48-hour incubation (FIG. 4A). Compound 1 (AG18051) and its analog 14b were screened for toxic effects in the SH-SY5Y cell lines.
HupA at 10 μM concentration provided 74% protection from Aβ-induced toxicity. […] Again, synthesized compound 14b at 1 μM, afforded greater protection than HupA at 10 μM concentration.

Aβ-ABAD PPI = biological target: T2, Aβ-ABAD PPI (Homo sapiens, UniProt Q99714); experiment: Estradiol ELISA assay: rescue of Aβ-induced reduction of estradiol levels in SH-SY5Y cells; assay type: cell-based
T2 construct: wildtype human SH-SY5Y cell lines, which are known to express ABAD; endogenous in cells; host or cells: SH-SY5Y
T2 sequence (Q99714 2-261 limits assumed): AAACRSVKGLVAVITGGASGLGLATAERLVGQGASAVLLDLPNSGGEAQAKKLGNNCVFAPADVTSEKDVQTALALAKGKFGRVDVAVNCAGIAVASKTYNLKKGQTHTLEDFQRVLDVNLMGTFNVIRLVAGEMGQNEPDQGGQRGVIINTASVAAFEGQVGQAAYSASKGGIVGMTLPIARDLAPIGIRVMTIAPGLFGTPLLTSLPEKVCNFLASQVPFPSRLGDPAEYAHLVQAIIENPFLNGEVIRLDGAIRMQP
Method: as §1, §2
Estradiol ELISA assay. SH-SY5Y cells were treated with compounds (24 hours), followed by Aβ (72 hours) in a similar fashion to that employed in the cell viability assays, the cell culture medium was collected, and cells were lysed using RIPA buffer and protease inhibitor cocktail, then proteins were quantified via BCA assay. An estradiol assay was performed. In brief, the plate was loaded with samples, along with the estradiol tracer and the specific antiserum to estradiol and incubated for one hour at room temperature. After five washing steps, Ellman's Reagent was added, and the plate developed for 60 minutes with gentle shaking at room temperature. The calculated estradiol concentration was normalized to the total protein content of the samples.
Statistical Analyses. The IC50 values of each compound were acquired from a single experiment with each inhibitor concentration run in triplicate and the statistical significance was calculated using the Student t test, or a one-way or two-way ANOVA. A P value of <0.05 was considered statistically significant. IC50 values were calculated.
To determine the effect of Aβ on estradiol production, and ABAD's role in this process, wildtype human SH-SY5Y cell lines, which are known to express ABAD, were incubated for 72 hours with Aβ.^20 Estradiol levels in the cell lysate were measured with a commercial ELISA-based estradiol assay. […] To determine if AG18051 treatment affects Aβ-induced reduction of estradiol levels, 0.1 or 1 μM AG18051 was preincubated in SH-SY5Y cells for 24 hours prior to Aβ exposure. […] AG18051 at 1 μM protected SH-SY5Y cells from Aβ-induced reduction of estradiol production to a greater significance than HupA. This confirms literature reports that AG18051 is neuroprotective and that it exerts this effect by ameliorating Aβ-induced reduction of estradiol production by ABAD.^20, 23
This assay methodology allows direct screening of compound activity in the presence of Aβ and provides direct evidence of the ability of compounds to rescue Aβ-induced reduction of estradiol production by ABAD. To measure the effect of AG18051 alone in SH-SY5Y cell lines, a 0.01-100 μM dose-response range was tested, and their effect on estradiol levels (FIG. 2B). […] To evaluate the effect of the increase of AG18051 dose in maintaining estradiol levels reduced by Aβ, AG18051 was tested in increasing concentrations in the presence of Aβ (FIG. 2B).

SH-SY5Y cells [6] = experiment: Cell viability of SH-SY5Y cells with compound alone; assay type: cell-based, human; conditions: up to 100 μM
Method: as §1
as §3, with “assay. […]” for “assay.”

ABAD [7] = biological target: T1, ABAD; conditions: at 10 μM concentration; cited from earlier work

For O=C(C(c1ccccc1)n1cnc2[nH]ncc2c1=S)N1CCCCCC1 (centres unmarked) [Compound 1, 1-(azepan-1-yl)-2-phenyl-2-(4-thioxo-1,4-dihydro-5H-pyrazolo[3,4-d]pyrimidin-5-yl)ethan-1-one, reference compound], the solubility [1] is given as “poor solubility”, the “LDH release compared with Aβ treatment alone” value (SH-SY5Y cells [2]) is given as “significantly reducing LDH release” and the “effect on estradiol levels, compound alone” value (ABAD [3]; 0.01-100 μM dose-response range) is given as “no significant reduction in estradiol levels”. For the same compound, the “decrease in estradiol levels compared to control” value (ABAD [3]; compound alone at 100 μM) was 20%, the “basal respiration: restored share of the cell respiration reduced by Aβ” value (SH-SY5Y cells [4]; 1 μM pretreatment 24 hrs, then 25 μM Aβ 48 hrs) was 37% and the “proton leak, ATP production and maximal respiration: restoration of mitochondrial function lost by Aβ” value (SH-SY5Y cells [4]; 1 μM pretreatment) was “trend to restore”. For the same compound, the “protection of cell viability (MTS assay)” value (SH-SY5Y cells [5]; 1 μM) was 79%, the IC50 (Aβ-ABAD PPI; compounds 24 hours then Aβ 72 hours, amelioration of Aβ-induced reduction of estradiol levels, read-out: IC50 (estradiol assay)) was 1.22 µM and 1.2 µM and the “estradiol levels in the presence of Aβ” value (Aβ-ABAD PPI; preincubated 24 hours prior to Aβ exposure, compared to Aβ-only control, listed as AG18051) was “significantly maintained estradiol levels; also recorded: dose-dependent increase in estradiol levels”. For the same compound, the “toxicity to reduce cell viability” value (SH-SY5Y cells [6]) was “no toxicity”.

For C/C=C1\[C@H]2C=C(C)C[C@]1(N)c1ccc(=O)[nH]c1C2 [Huperzine A], the “basal respiration: restored respiration levels” value (SH-SY5Y cells [4]; 10 μM pretreatment 24 hrs, then 25 μM Aβ 48 hrs) is listed as 46%, the “proton leak, ATP production and maximal respiration: restoration of mitochondrial function lost by Aβ” value (SH-SY5Y cells [4]; 10 μM pretreatment) is listed as “trend to restore” and the ABAD inhibition activity (ABAD [7]) is listed as “possess ABAD inhibition activity”. For the same compound, the “protection from Aβ-induced toxicity (MTS assay)” value (SH-SY5Y cells [5]; 10 μM) was 74%.
